Data: patent publication US20250018047A1, “METHODS AND COMPOSITIONS FOR TARGETED PROTEIN DEGRADATION” (Ranok Therapeutics (Hangzhou) Co. Ltd., priority 2021, published 2025)

Tests used:
KRAS(G12D)/SOS1 = target: T1, KRAS(G12D)/SOS1 (Homo sapiens, UniProt P01116, G12D); experiment: KRAS(G12D)/SOS1 homogeneous time-resolved fluorescence (HTRF) assay; assay type: binding; conditions: absence of GTP, 4° C. for 3 hr
T1 construct: purchased Cisbio 63ADK000CB16PEG
Method: The test compound was mixed and incubated with reaction components, incubated in a sealed plate at 4° C. for 3 hr and fluorescence was measured using a PerkinElmer Envision plate reader.

[1] = tested on: A-427 human lung carcinoma; experiment: CellTiter-Glo cancer cell line proliferation assay, A-427; assay type: cell-based; conditions: Homo sapiens, A-427, 24 hr, read-out: A427 at 24 hrs, IC50
Method: (§1) Cell lines were cultured according to ATCC and recommendations.
(§2) CellTiter-Glo® Reagent Cancer Cell Line Proliferation Assays
(§3) Cells were plated in 96-well tissue culture plates at 4,000 cells/well and incubated at 37° C./5% CO2 for 24 hr in 100 μl of media. […] Cells were then treated with test compounds at various concentrations with a final concentration of 0.5% DMSO/well, and then incubated at 37° C./5% CO2 for 24 hr. 100 μl of CellTiter-Glo® Reagent (Promega Corporation, Madison, WI) was added to each well and processed according manufacturer's protocol. Results were analyzed and IC50-values were calculated in GraphPad 7 software.

[2] = tested on: AsPC-1 human pancreatic adenocarcinoma; experiment: CellTiter-Glo cancer cell line proliferation assay, AsPC-1; assay type: cell-based; conditions: Homo sapiens, ASPC1, 24 hr
Method: as §1, §2, §3

KRAS(G12D) = target: T2, KRAS(G12D) (Homo sapiens, UniProt P01116, G12D); experiment: SW1990 WB assay (degradation DC50, Dmax); assay type: cell-based; conditions: Western blot, SW1990 cells
T2 construct: endogenous in cells; host or cells: SW1990
T2 sequence (P01116 1-188 isoform P01116-2 G12D): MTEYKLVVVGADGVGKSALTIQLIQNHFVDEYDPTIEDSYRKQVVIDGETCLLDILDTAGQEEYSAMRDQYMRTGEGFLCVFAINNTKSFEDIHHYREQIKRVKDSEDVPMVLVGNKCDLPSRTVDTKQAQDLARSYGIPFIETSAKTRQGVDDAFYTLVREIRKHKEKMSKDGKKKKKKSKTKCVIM

T1 sequence (P01116 1-188 isoform P01116-2 G12D): as above

Row | SMILES | IC50 (KRAS(G12D)/SOS1) [nM] | IC50 [1] [nM] | IC50 [2] [nM] | DC50 (KRAS(G12D)) [nM] | Dmax (KRAS(G12D)) [%]
1 | O=C1CCC(N2C(=O)c3ccc(N4CCC(CN5CCN(CC6(COc7nc(N8CC9CCC(C8)N9)c8cnc(-c9cc(O)cc%10ccccc9%10)c(F)c8n7)CC6)CC5)CC4)cc3C2=O)C(=O)N1 (stereo not shown) [Compound 47] | < 100 | > 1000 | > 1000 |  | 
2 | O=C1CCC(N2C(=O)c3ccc(N4CCC(C(=O)N5CCN(CC6(COc7nc(N8CC9CCC(C8)N9)c8cnc(-c9cc(O)cc%10ccccc9%10)c(F)c8n7)CC6)CC5)CC4)cc3C2=O)C(=O)N1 (stereo not shown) [Compound 39] | < 100 | > 1000 | > 1000 |  | 
3 | C#Cc1c(F)ccc2cc(O)cc(-c3ncc4c(N5CC6CCC(C5)N6)nc(OCC5(CN6CCN(CC7CCN(c8ccc9c(c8)C(=O)N(C8CCC(=O)NC8=O)C9=O)CC7)CC6)CC5)nc4c3F)c12 (stereo not shown) [Compound 59] | < 100 | 100 to 1000 | 100 to 1000 |  | 
4 | C#Cc1cccc2cc(O)cc(-c3ncc4c(N5CC6CCC(C5)N6)nc(OCC5(CN6CCN(CC7CCN(c8ccc9c(c8)CN(C8CCC(=O)N(C)C8=O)C9=O)CC7)CC6)CC5)nc4c3F)c12 (stereo not shown) [Compound 71] | < 100 | 100 to 1000 |  | > 1000 | 10 to 50
5 | C#Cc1c(F)ccc2cc(O)cc(-c3ncc4c(N5CC6CCC(C5)N6)nc(OCC5(CN6CCC(N7CCC(c8ccc9c(c8)CN(C8CCC(=O)NC8=O)C9=O)CC7)CC6)CC5)nc4c3F)c12 (stereo not shown) [Compound 107] | < 100 |  | < 100 | < 100 | 
6 | C#Cc1c(F)ccc2cc(O)cc(-c3nc(OC)c4c(N5CCN(C(=O)CC)[C@H](CC#N)C5)nc(OCC5(CN6CCN(CC7CCN(c8ccc9c(c8)CN(C8CCC(=O)NC8=O)C9=O)CC7)CC6)CC5)nc4c3F)c12 (stereo partly shown) [Compound 92] | < 100 | > 1000 | > 1000 |  | 
7 | C#Cc1cccc2cccc(-c3ncc4c(N5CC6CCC(C5)N6)nc(OC[C@H]5C[C@@H](N6CCN(C[C@H]7CC[C@H](Nc8ccc9c(c8)C(=O)N(C8CCC(=O)NC8=O)C9=O)CC7)CC6)CN5C)nc4c3F)c12 (stereo partly shown) [Compound 77] | < 100 | > 1000 | > 1000 |  | 
8 | O=C1CCC(N2C(=O)c3ccc(CN4CCN([C@H]5CN6CCC[C@@]6(COc6nc(N7CC8CCC(C7)N8)c7cnc(-c8cc(O)cc9ccccc89)c(F)c7n6)C5)CC4)cc3C2=O)C(=O)N1 (stereo partly shown) [Compound 50] | < 100 | > 1000 | > 1000 |  | 
9 | O=C1CCC(N2Cc3cc(CN4CCN(CC5(COc6nc(N7CC8CCC(C7)N8)c7cnc(-c8cc(O)cc9ccccc89)c(F)c7n6)CC5)CC4)ccc3C2=O)C(=O)N1 (stereo not shown) [Compound 40] | < 100 | > 1000 | > 1000 |  | 
10 | O=C1CCC(N2C(=O)c3ccc(CN4CCN(CC5(COc6nc(N7CC8CCC(C7)N8)c7cnc(-c8cc(O)cc9ccccc89)c(F)c7n6)CC5)CC4)cc3C2=O)C(=O)N1 (stereo not shown) [Compound 41] | < 100 | > 1000 | > 1000 |  | 
11 | C#Cc1c(F)ccc2cc(O)cc(-c3ncc4c(N5CC6CCC(C5)N6)nc(OCC5(CN6CCN(C7CCN(c8ccc9c(c8)CN(C8CCC(=O)NC8=O)C9=O)CC7)CC6)CC5)nc4c3F)c12 (stereo not shown) [Compound 104] | < 100 |  | 100 to 1000 | < 100 | > 50
12 | CN1C[C@H](N2CCN(CC3CCN(c4cccc5c4C(=O)N(C4CCC(=O)NC4=O)C5=O)CC3)CC2)C[C@@H]1COc1nc(N2CC3CCC(C2)N3)c2cnc(-c3cc(O)cc4ccccc34)c(F)c2n1 (stereo partly shown) [Compound 35] | < 100 | > 1000 | > 1000 |  | 
13 | C#Cc1c(F)ccc2cc(O)cc(-c3nc(OC)c4c(N5CC6CCC(C5)N6)nc(OCC5(CN6CCN(C7CCN(c8ccc9c(c8)CN(C8CCC(=O)NC8=O)C9=O)CC7)CC6)CC5)nc4c3F)c12 (stereo not shown) [Compound 112] | < 100 |  |  | < 100 | 
14 | C#Cc1cccc2cccc(-c3ncc4c(N5CC6CCC(C5)N6)nc(OC[C@H]5CC[C@@H](CN6CCN(CC7CCC(Nc8ccc9c(c8)C(=O)N(C8CCC(=O)NC8=O)C9=O)CC7)CC6)N5C)nc4c3F)c12 (stereo partly shown) [Compound 79] | < 100 | > 1000 | > 1000 |  | 
15 | C#Cc1c(F)ccc2cc(O)cc(-c3ncc4c(N5CC6CCC(C5)N6)nc(OCC5(CN6CCC(CN7CCC(c8ccc9c(c8)CN(C8CCC(=O)NC8=O)C9=O)CC7)CC6)CC5)nc4c3F)c12 (stereo not shown) [Compound 111] | < 100 |  |  | < 100 | > 50
16 | C#Cc1cccc2cc(O)cc(-c3ncc4c(N5CC6CCC(C5)N6)nc(OCC5(CN6CCN(CC7CCN(c8ccc9c(c8)C(=O)N(C8CCC(=O)NC8=O)C9)CC7)CC6)CC5)nc4c3F)c12 (stereo not shown) [Compound 86] |  | < 100 | < 100 | < 100 | > 50
17 | C#Cc1c(F)ccc2cc(O)cc(-c3nc(O)c4c(N5CC6CCC(C5)N6)nc(OCC5(CN6CCN(CC7CCN(c8ccc9c(c8)CN(C8CCC(=O)NC8=O)C9=O)CC7)CC6)CC5)nc4c3F)c12 (stereo not shown) [Compound 101] |  | > 1000 | 100 to 1000 | > 1000 | < 10
18 | O=C1CCC(N2C(=O)c3cccc(N4CCC(CN5CCN(CC6(COc7nc(N8CC9CCC(C8)N9)c8cnc(-c9cc(O)cc%10ccccc9%10)c(F)c8n7)CC6)CC5)CC4)c3C2=O)C(=O)N1 (stereo not shown) [Compound 42] | < 100 | > 1000 | > 1000 |  | 
19 | C#Cc1cccc2cc(O)cc(-c3ncc4c(N5CC6CCC(C5)N6)nc(OCC5(CN6CCN(CC7CCN(c8ccc9c(c8)C(=O)N(C8CCC(=O)NC8=O)C9=O)CC7)CC6)CC5)nc4c3F)c12 (stereo not shown) [Compound 56] | < 100 | 100 to 1000 |  | < 100 | > 50
20 | COc1nc(-c2cc(O)cc3ccccc23)c(F)c2nc(OCC3(CN4CCN(CC5CCN(c6ccc7c(c6)C(=O)N(C6CCC(=O)NC6=O)C7=O)CC5)CC4)CC3)nc(N3CC4CCC(C3)N4)c12 (stereo not shown) [Compound 66] | < 100 | 100 to 1000 | 100 to 1000 |  | 
21 | CN1C[C@H](N2CCN(C(=O)C3CCN(c4ccc5c(c4)CN(C4CCC(=O)NC4=O)C5=O)CC3)CC2)C[C@@H]1COc1nc(N2CC3CCC(C2)N3)c2cnc(-c3cc(O)cc4ccccc34)c(F)c2n1 (stereo partly shown) [Compound 44] | < 100 | > 1000 | > 1000 |  | 
22 | O=C1CCC(N2Cc3cc(N4CCN(CC5(COc6nc(N7CC8CCC(C7)N8)c7cnc(-c8cccc9cccc(Cl)c89)c(F)c7n6)CC5)CC4)ccc3C2=O)C(=O)N1 (stereo not shown) [Compound 80] | < 100 | > 1000 | > 1000 |  | 
23 | C#Cc1c(F)ccc2cc(O)cc(-c3ncc4c(N5CCN(C(=O)CC)[C@@H](CC#N)C5)nc(OCC5(CN6CCN(CC7CCN(c8ccc9c(c8)CN(C8CCC(=O)NC8=O)C9=O)CC7)CC6)CC5)nc4c3F)c12 (stereo partly shown) [Compound 97] | < 100 | > 1000 | > 1000 |  | 
24 | CN1C[C@H](N2CCN(Cc3ccc4c(c3)C(=O)N(C3CCC(=O)NC3=O)C4=O)CC2)C[C@@H]1COc1nc(N2CC3CCC(C2)N3)c2cnc(-c3cc(O)cc4ccccc34)c(F)c2n1 (stereo partly shown) [Compound 36] | < 100 | > 1000 | > 1000 |  | 
25 | C#Cc1cccc2cccc(-c3ncc4c(N5CC6CCC(C5)N6)nc(OCC5(CN6CCN(C(=O)C7CCN(c8ccc9c(c8)CN(C8CCC(=O)NC8=O)C9=O)CC7)CC6)CC5)nc4c3F)c12 (stereo not shown) [Compound 51] | < 100 | > 1000 | > 1000 |  | 
26 | CN1C[C@H](N2CCN(C(=O)C3CCN(c4ccc5c(c4)C(=O)N(C4CCC(=O)NC4=O)C5=O)CC3)CC2)C[C@@H]1COc1nc(N2CC3CCC(C2)N3)c2cnc(-c3cc(O)cc4ccccc34)c(F)c2n1 (stereo partly shown) [Compound 37] | < 100 | > 1000 | > 1000 |  | 
27 | CN1C[C@H](N2CCN(CC3CCN(c4ccc5c(c4)C(=O)N(C4CCC(=O)NC4=O)C5=O)CC3)CC2)C[C@@H]1COc1nc(N2CC3CCC(C2)N3)c2cnc(-c3cc(O)cc4ccccc34)c(F)c2n1 (stereo partly shown) [Compound 34] | < 100 | > 1000 | > 1000 |  | 
28 | CN1C[C@H](N2CCC(C(=O)N3CCN(c4ccc5c(c4)C(=O)N(C4CCC(=O)NC4=O)C5=O)CC3)CC2)C[C@@H]1COc1nc(N2CC3CCC(C2)N3)c2cnc(-c3cc(O)cc4ccccc34)c(F)c2n1 (stereo partly shown) [Compound 46] | < 100 | > 1000 | > 1000 |  | 
